Test results from US12528812B2 (Genentech, Inc., priority 2020, dated 2026).
Where two headings read alike, the source gives them in different places.

Columns and labels:
[1] = molecular target: T1, recombinant human JAK1 kinase domain protein (Residues 854-1154) (Homo sapiens, UniProt P23458); assay: JAK1 biochemical assay (LabChip mobility shift, Ki); conditions: read-out: Biochem JAK1 Ki
T1 construct: human JAK1 kinase domain protein (Residues 854-1154); purchased Proteros Biostructures GmbH (Martinsried, Germany); host or cells: insect cells

[2] = test system: IL-13-stimulated STAT6 phosphorylation in human lung bronchial epithelial BEAS-2B cell line; assay: P-STAT6 BEAS-2B + IL-13 cell assay; type: cell-based; conditions: BEAS2B cells, IL13 stimulation, read-out: Cellular JAK1 PSTAT6 BEAS2B + IL13
Protocol: In order to study the effect of JAK1 inhibitors in a cell line that is relevant to the cell biology of human asthma, an IL-13-stimulated STAT6 phosphorylation assay in the human lung bronchial epithelial BEAS-2B cell line was developed.
BEAS-2B cells (ATCC′ CRL-9609™) were grown in Bronchial Epithelial Growth Medium (BEGM) (Lonza Catalog No. CC-3170; Walkersville, MD; or PromoCell Catalog No. C-21060; Heidelberg, Germany). Test compound stock solutions (0.5 mM in DMSO) were serially diluted 1:2 in DMSO to generate a 10-point concentration curve (at 500× test concentration), which was further diluted by a 50-fold dilution step in BEGM to generate a 10× concentration curve (in 2% DMSO). Cells were plated at 100,000 cells/well in 200 μL of BEGM in 96-well plates and incubated for 48 hours at 37° C. in a humidified incubator. Medium was aspirated from the cells and replaced with 70 μL of fresh BEGM. Diluted test compound (10 μL; or 2% DMSO in assay medium) was added to the cells, and the plates were incubated for 1 hour at 37° C. in a humidified incubator. Twenty μL of 250 ng/mL human recombinant IL-13 (Bio Techne Catalog No. 213-ILB) was then added to the cells and incubated for 15 minutes at 37° C. Medium was aspirated from the cells and 60 μL of ice-cold 1× cell lysis buffer (Cell Signaling Technologies; Catalog No. 9803S) containing 1 mM PMSF was added to the cells. Assay plates were incubated at −80° C. for at least 1 hour. P-STAT6 was measured by coating GAR plates (MSD; Catalog No. L45RA-1) with rabbit anti-human total STAT6 antibody (Cell Signaling Technologies; Catalog No. 9362S), incubating the cell lysates in the coated plates overnight at 4° C., and then detecting with mouse anti-phospho-STAT6 (Tyr641) Clone 16E12 antibody (Millipore; Catalog No. 05-590, custom labeled by MSD with SULFO-tag) using standard MSD plate processing, washing, and detection protocols. Plates were read on the MESO SECTOR 5600.
Data analysis was performed by subtracting negative control values from all wells and determining percent of control using the positive control values; the IC50 was determined with a four-parameter logistic fit model as shown in Equation 4.

[3] = molecular target: Recombinant human JAK2 kinase domain protein (Residues 812-1132) (Homo sapiens, UniProt O60674); assay: JAK2 biochemical assay (LabChip mobility shift, Ki); conditions: Biochem JAK2 Ki
Chain of Recombinant human JAK2 kinase domain protein (Residues 812-1132) (O60674 812-1132): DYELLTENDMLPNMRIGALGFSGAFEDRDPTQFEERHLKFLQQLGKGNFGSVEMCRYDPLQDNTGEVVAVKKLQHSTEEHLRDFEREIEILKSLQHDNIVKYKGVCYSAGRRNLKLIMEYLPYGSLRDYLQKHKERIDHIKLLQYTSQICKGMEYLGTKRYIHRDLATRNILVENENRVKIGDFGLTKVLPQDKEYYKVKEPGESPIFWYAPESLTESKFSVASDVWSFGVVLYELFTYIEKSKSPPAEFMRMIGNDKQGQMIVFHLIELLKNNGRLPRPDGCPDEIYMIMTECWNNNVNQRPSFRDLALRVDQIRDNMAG

T1 sequence (P23458 854-1154): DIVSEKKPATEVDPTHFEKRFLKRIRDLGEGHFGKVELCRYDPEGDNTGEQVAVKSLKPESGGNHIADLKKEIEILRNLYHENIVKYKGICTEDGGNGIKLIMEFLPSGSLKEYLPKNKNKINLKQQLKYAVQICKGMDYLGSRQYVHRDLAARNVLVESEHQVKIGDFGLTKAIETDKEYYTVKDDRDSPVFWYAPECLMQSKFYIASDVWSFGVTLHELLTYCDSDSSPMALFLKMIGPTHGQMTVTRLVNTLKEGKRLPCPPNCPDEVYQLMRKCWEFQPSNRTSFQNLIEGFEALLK

| Ki [1] [nM] | Ki [3] [nM] | Compound | IC50 ([2]; Homo sapiens, BEAS-2B) [nM] | IC50 [2] [nM] |
| --- | --- | --- | --- | --- |
| 3.6 | 1.9 | Cn1cc(NC(=O)c2cnn3cccnc23)c(-c2cc(Oc3ccc(C4(CC#N)CNC4)cc3)ccc2OC(F)F)n1 [Example 148, N-[3-[5-[4-[3-(cyanomethyl)azetidin-3-yl]phenoxy]-2-(difluoromethoxy)phenyl]-1-methyl-pyrazol-4-yl]pyrazolo[1,5-a]pyrimidine-3-carboxamide] | 210 | – |
| 0.41 | 0.22 | Cn1cc(NC(=O)c2cnn3cccnc23)c(-c2cc(Oc3cnn(C4CCNCC4O)c3)ccc2OC(F)F)n1 (stereo not drawn) [Example 183, N-[3-[2-(difluoromethoxy)-5-[1-(3-hydroxy-4-piperidyl)pyrazol-4-yl]oxy-phenyl]-1-methyl-pyrazol-4-yl]pyrazolo[1,5-a]pyrimidine-3-carboxamide] | – | 150 |
| 1.7 | 0.57 | CN1CCc2cc(Oc3ccc(OC(F)F)c(-c4nn(C)cc4NC(=O)c4cnn5cccnc45)c3)ccc2C1 [Example 64, N-[3-[2-(difluoromethoxy)-5-[(2-methyl-3,4-dihydro-1H-isoquinolin-6-yl)oxy]phenyl]-1-methyl-pyrazol-4-yl]pyrazolo[1,5-a]pyrimidine-3-carboxamide] | 59 | – |
| 0.59 | 0.31 | CN1CCN(C(=O)Cn2cc(Oc3ccc(OC(F)F)c(-c4nn(C)cc4NC(=O)c4cnn5cccnc45)c3)cn2)CC1 [Example 90, N-[3-[2-(difluoromethoxy)-5-[1-[2-(4-methylpiperazin-1-yl)-2-oxo-ethyl]pyrazol-4-yl]oxy-phenyl]-1-methyl-pyrazol-4-yl]pyrazolo[1,5-a]pyrimidine-3-carboxamide] | 52 | – |
| 0.4 | 0.46 | CN1CC(O)(c2cccc(Oc3ccc(OC(F)F)c(-c4nn(C5COC5)cc4NC(=O)c4cnn5cccnc45)c3)c2)C1 [Example 100, N-[3-[2-(difluoromethoxy)-5-[3-(3-hydroxy-1-methyl-azetidin-3-yl)phenoxy]phenyl]-1-(oxetan-3-yl)pyrazol-4-yl]pyrazolo[1,5-a]pyrimidine-3-carboxamide] | 46 | – |
| 0.31 | 0.21 | Cc1c(Oc2ccc(OC(F)F)c(-c3nn(C)cc3NC(=O)c3cnn4cccnc34)c2)cnn1CCO [Example 155, N-[3-[2-(difluoromethoxy)-5-[1-(2-hydroxyethyl)-5-methyl-pyrazol-4-yl]oxy-phenyl]-1-methyl-pyrazol-4-yl]pyrazolo[1,5-a]pyrimidine-3-carboxamide] | 25 | – |
| 2 | 1.6 | Cn1cc(NC(=O)c2cnn3cccnc23)c(-c2cc(Oc3cccc(CNCCN4CCOCC4)c3)ccc2OC(F)F)n1 [Example 47, N-[3-[2-(difluoromethoxy)-5-[3-[(2-morpholinoethylamino)methyl]phenoxy]phenyl]-1-methyl-pyrazol-4-yl]pyrazolo[1,5-a]pyrimidine-3-carboxamide] | 24 | – |
| 0.21 | 0.43 | Cn1cc(NC(=O)c2cnn3cccnc23)c(-c2cc(Oc3cccc(CN)c3)ccc2OC(F)F)n1 [Example 13, N-[3-[5-[3-(aminomethyl)phenoxy]-2-(difluoromethoxy)phenyl]-1-methyl-pyrazol-4-yl]pyrazolo[1,5-a]pyrimidine-3-carboxamide] | 13 | – |
| 0.32 | 0.27 | Cn1cc(NC(=O)c2cnn3cccnc23)c(-c2cc(Oc3cccc(C4(O)CNC4)c3)ccc2OC(F)F)n1 [Example 53] | 210 | – |
| 0.35 | 0.24 | C[C@H](O)Cn1cc(Oc2ccc(OC(F)F)c(-c3nn(C)cc3NC(=O)c3cnn4cccnc34)c2)cn1 (racemic) [Example 120, N-[3-[2-(difluoromethoxy)-5-[1-[rac-(2R)-2-hydroxypropyl]pyrazol-4-yl]oxy-phenyl]-1-methyl-pyrazol-4-yl]pyrazolo[1,5-a]pyrimidine-3-carboxamide] | 19 | – |
